The Kd is the constant that tells how readily two partners part at equilibrium. A lower Kd goes with a tighter complex.

Data on 2 molecules can be found in patent US11345912B2, “Directed evolution of multivalent glycopeptides that tightly bind to target proteins” (Brandeis University, priority 2013, dated 2022).

The assay deals with 2G12. The experiment in a line: Binding curve and KD determination of 2G12-glycopeptide interaction (radiolabeled glycopeptide, protein G magnetic bead capture, scintillation counting). The conditions noted are these: Table 4, error = standard error of fit; for Fmax [%]: maximal fraction bound from curve fit; for Kd: ribosomally translated radiolabeled glycopeptide with His6/FLAG tag, room temperature, fit Fbound=(Fmax[2G12])/(KD+[2G12]). Here is the method: The resulting mRNAs were purified by denaturing PAGE or MEGAclear kit (Ambion), and 1 μM RNA was used in PURE system translation (reaction volume of translation varied). Typically, 25 μL of translated reaction was diluted with 100 μL of binding buffer (50 mM Tris-HCl, pH 7.8, 300 mM NaCl, 5 mM β-mercaptoethanol) and 25 μL of Ni-NTA agarose suspension (Qiagen), and tumbled at room temperature for 1 h. The resins were transferred to 0.22 μm spin-filter rinsing with 100 μL of bind buffer, and washed with 3×200 μL of bind buffer and 2×200 μL of wash buffer (50 mM Tris-HCl, pH 7.8, 5 mM β-mercaptoethanol). The bound peptides were eluted with 2×25 μL of 0.1% TFA. The eluted peptides were analyzed by MALDI-TOF MS, using α-Cyano-4-hydroxycinnamic acid matrix (Sigma), with or without desalting with ZipTip C18 resin (Millipore). For calibration of MALDI-TOF-MS, at least two of the following standards, bovine insulin, E. coli thioredoxin and/or horse apomyoglobin were used. To quantitate peptide yields, the radioactivities were measured by liquid scintillation counting. For the click reaction, the translated and purified peptides were mixed with 0.1% (v/v) Triton X-100, and then dialyzed against H2O containing 0.1% (v/v) Triton X-100 using Slide-A-Lyzer MINI Dialysis Devices, 3.5K MWCO (Thermo Scientific) overnight to desalt. After dialysis, the peptides were divided into two portions: one was glycosylated via the click reaction, while the other was saved as a non-glycosylated peptide control. […] The glycosylated peptide (<4 pmol) was incubated with 100 nM 2G12 in selection buffer (40 μL) at room temp. The solution was then tumbled 30 min with 0.12 mg of equilibrated Dynabeads Protein G to capture 2G12-glycopeptide complex. Beads were then washed with 3×40 μL of selection buffer and resuspended in 10 μL of selection buffer. The resuspended beads were heated at 70° C. for 30 min to denature 2G12 and elute glycopeptides, chilled on ice for 5 min, and tumbled at room temperature for 10 min. The magnetically isolated supernatant was recovered and the beads were rinsed with 10 μL of selection buffer.
Then, the solution was added to 0.12 mg of pre-equilibrated Dynabeads Protein G and tumbled at room temperature for 30 min. The supernatant was removed and the beads were washed with 3×40 μL of selection buffer. The radioactivities of the supernatant and wash solutions were measured by liquid scintillation counting as unbound fractions. […] The beads were resuspended in 40 μL of selection buffer, heated at 70° C. for 30 min to elute the bound glycopeptides, chilled on ice for 5 min, and tumbled at room temperature for 10 min. The supernatant was removed, and the beads were washed with 40 μL of selection buffer and resuspended in 40 μL of selection buffer. The radioactivities of these solutions and suspensions were measured by liquid scintillation counting separately and the values were combined as apparent bound fractions. […] All experiments were done at least in triplicate. KDs were calculated as described in the footnote of Table 4 (below).

For `CC[C@H](C)[C@H](NC(=O)[C@H](CO)NC(=O)[C@@H](NC(=O)[C@H](CCc1cn(C2CCC(OC3O[C@H](CO[C@H]4O[C@H](CO[C@H]5O[C@H](CO)[C@@H](O)[C@H](O)[C@@H]5O[C@H]5O[C@H](CO)[C@@H](O)[C@H](O)[C@@H]5O)[C@@H](O)[C@H](O[C@H]5O[C@H](CO)[C@@H](O)[C@H](O)[C@@H]5O[C@H]5O[C@H](CO)[C@@H](O)[C@H](O)[C@@H]5O)[C@@H]4O)[C@@H](O)[C@H](O[C@H]4O[C@H](CO)[C@@H](O)[C@H](O)[C@@H]4O[C@H]4O[C@H](CO)[C@@H](O)[C@H](O)[C@@H]4O[C@H]4O[C@H](CO)[C@@H](O)[C@H](O)[C@@H]4O)[C@@H]3O)CC2)nn1)NC=O)[C@@H](C)O)C(=O)N1CCC[C@H]1C(=O)N[C@@H](Cc1ccc(O)cc1)C(=O)N[C@H](C(=O)N[C@@H](Cc1ccc(O)cc1)C(=O)N[C@@H](CC(C)C)C(=O)N[C@@H](CC(N)=O)C(=O)N[C@@H](CCCNC(=N)N)C(=O)N[C@@H](CO)C(=O)N[C@@H](CC(C)C)C(=O)N[C@@H](Cc1c[nH]c2ccccc12)C(=O)N[C@H](C(=O)N[C@@H](CC(N)=O)C(=O)N[C@@H](Cc1ccc(O)cc1)C(=O)N[C@@H](CCCNC(=N)N)C(=O)N[C@H](C(=O)N[C@@H](CC(N)=O)C(=O)N[C@@H](CO)C(=O)N[C@@H](Cc1c[nH]c2ccccc12)C(=O)N[C@@H](CO)C(=O)N[C@@H](CCc1cn(C2CCC(OC3O[C@H](CO[C@H]4O[C@H](CO[C@H]5O[C@H](CO)[C@@H](O)[C@H](O)[C@@H]5O[C@H]5O[C@H](CO)[C@@H](O)[C@H](O)[C@@H]5O)[C@@H](O)[C@H](O[C@H]5O[C@H](CO)[C@@H](O)[C@H](O)[C@@H]5O[C@H]5O[C@H](CO)[C@@H](O)[C@H](O)[C@@H]5O)[C@@H]4O)[C@@H](O)[C@H](O[C@H]4O[C@H](CO)[C@@H](O)[C@H](O)[C@@H]4O[C@H]4O[C@H](CO)[C@@H](O)[C@H](O)[C@@H]4O[C@H]4O[C@H](CO)[C@@H](O)[C@H](O)[C@@H]4O)[C@@H]3O)CC2)nn1)C(=O)N[C@@H](CO)C(=O)N[C@@H](CCCCN)C(=O)N[C@@H](CC(N)=O)C(=O)N[C@H](C(=O)N[C@@H](CC(N)=O)C(=O)N[C@H](C(=O)N[C@@H](CCc1cn(C2CCC(OC3O[C@H](CO[C@H]4O[C@H](CO[C@H]5O[C@H](CO)[C@@H](O)[C@H](O)[C@@H]5O[C@H]5O[C@H](CO)[C@@H](O)[C@H](O)[C@@H]5O)[C@@H](O)[C@H](O[C@H]5O[C@H](CO)[C@@H](O)[C@H](O)[C@@H]5O[C@H]5O[C@H](CO)[C@@H](O)[C@H](O)[C@@H]5O)[C@@H]4O)[C@@H](O)[C@H](O[C@H]4O[C@H](CO)[C@@H](O)[C@H](O)[C@@H]4O[C@H]4O[C@H](CO)[C@@H](O)[C@H](O)[C@@H]4O[C@H]4O[C@H](CO)[C@@H](O)[C@H](O)[C@@H]4O)[C@@H]3O)CC2)nn1)C(=O)N1CCC[C@H]1C(=O)N[C@@H](CC(C)C)C(=O)NCC(=O)N[C@@H](CO)C(=O)NCC(=O)N[C@@H](CO)C(=O)N[C@@H](CC(C)C)C(=O)NCC(=O)N[C@@H](Cc1c[nH]cn1)C(=O)N[C@@H](Cc1c[nH]cn1)C(=O)N[C@@H](Cc1c[nH]cn1)C(=O)N[C@@H](Cc1c[nH]cn1)C(=O)N[C@@H](Cc1c[nH]cn1)C(=O)N[C@@H](Cc1c[nH]cn1)C(=O)N[C@@H](CCCNC(=N)N)C(=O)N[C@@H](CC(=O)O)C(=O)N[C@@H](Cc1ccc(O)cc1)C(=O)N[C@@H](CCCCN)C(=O)N[C@@H](CC(=O)O)C(=O)N[C@@H](CC(=O)O)C(=O)N[C@@H](CC(=O)O)C(=O)N[C@@H](CC(=O)O)C(=O)N[C@@H](CCCCN)C(=O)O)C(C)C)C(C)C)C(C)C)[C@@H](C)O)[C@@H](C)O` (stereo partly shown) [Clone 10V9, XTSIPYTYLNRSLWTNYRVNSWSXSKNVNVXPL], the “Fmax [%]” value came out at 85 ± 0.68% and the equilibrium dissociation constant (Kd) was found to be 3.9 ± 0.11 nM.

For `CC[C@H](C)[C@H](NC(=O)[C@H](CCCNC(=N)N)NC(=O)[C@@H]1CCCN1C(=O)[C@H](CC(=O)O)NC(=O)[C@H](CCC(=O)O)NC(=O)[C@@H](NC(=O)[C@H](C)NC(=O)[C@H](Cc1ccc(O)cc1)NC(=O)[C@H](CCC(N)=O)NC(=O)[C@H](CCc1cn(C2CCC(OC3O[C@H](CO[C@H]4O[C@H](CO[C@H]5O[C@H](CO)[C@@H](O)[C@H](O)[C@@H]5O[C@H]5O[C@H](CO)[C@@H](O)[C@H](O)[C@@H]5O)[C@@H](O)[C@H](O[C@H]5O[C@H](CO)[C@@H](O)[C@H](O)[C@@H]5O[C@H]5O[C@H](CO)[C@@H](O)[C@H](O)[C@@H]5O)[C@@H]4O)[C@@H](O)[C@H](O[C@H]4O[C@H](CO)[C@@H](O)[C@H](O)[C@@H]4O[C@H]4O[C@H](CO)[C@@H](O)[C@H](O)[C@@H]4O[C@H]4O[C@H](CO)[C@@H](O)[C@H](O)[C@@H]4O)[C@@H]3O)CC2)nn1)NC(=O)[C@H](CCCNC(=N)N)NC(=O)[C@H](Cc1ccc(O)cc1)NC(=O)[C@H](CCC(=O)O)NC(=O)[C@H](CC(C)C)NC(=O)[C@H](CO)NC(=O)[C@H](CC(N)=O)NC(=O)[C@H](CC(C)C)NC(=O)[C@@H](NC(=O)[C@H](CO)NC(=O)[C@H](CCCNC(=N)N)NC(=O)[C@H](CCc1cn(C2CCC(OC3O[C@H](CO[C@H]4O[C@H](CO[C@H]5O[C@H](CO)[C@@H](O)[C@H](O)[C@@H]5O[C@H]5O[C@H](CO)[C@@H](O)[C@H](O)[C@@H]5O)[C@@H](O)[C@H](O[C@H]5O[C@H](CO)[C@@H](O)[C@H](O)[C@@H]5O[C@H]5O[C@H](CO)[C@@H](O)[C@H](O)[C@@H]5O)[C@@H]4O)[C@@H](O)[C@H](O[C@H]4O[C@H](CO)[C@@H](O)[C@H](O)[C@@H]4O[C@H]4O[C@H](CO)[C@@H](O)[C@H](O)[C@@H]4O[C@H]4O[C@H](CO)[C@@H](O)[C@H](O)[C@@H]4O)[C@@H]3O)CC2)nn1)NC=O)[C@@H](C)O)[C@@H](C)O)C(=O)N[C@@H](CCCNC(=N)N)C(=O)N[C@@H](CCc1cn(C2CCC(OC3O[C@H](CO[C@H]4O[C@H](CO[C@H]5O[C@H](CO)[C@@H](O)[C@H](O)[C@@H]5O[C@H]5O[C@H](CO)[C@@H](O)[C@H](O)[C@@H]5O)[C@@H](O)[C@H](O[C@H]5O[C@H](CO)[C@@H](O)[C@H](O)[C@@H]5O[C@H]5O[C@H](CO)[C@@H](O)[C@H](O)[C@@H]5O)[C@@H]4O)[C@@H](O)[C@H](O[C@H]4O[C@H](CO)[C@@H](O)[C@H](O)[C@@H]4O[C@H]4O[C@H](CO)[C@@H](O)[C@H](O)[C@@H]4O[C@H]4O[C@H](CO)[C@@H](O)[C@H](O)[C@@H]4O)[C@@H]3O)CC2)nn1)C(=O)N[C@@H](C)C(=O)N[C@@H](CO)C(=O)N[C@H](C(=O)N1CCC[C@H]1C(=O)N[C@@H](Cc1ccc(O)cc1)C(=O)N[C@H](C(=O)N[C@@H](Cc1ccc(O)cc1)C(=O)N[C@@H](Cc1c[nH]c2ccccc12)C(=O)N[C@@H](Cc1c[nH]c2ccccc12)C(=O)N1CCC[C@H]1C(=O)NCC(=O)N[C@@H](CO)C(=O)NCC(=O)N[C@@H](CO)C(=O)N[C@@H](CC(C)C)C(=O)NCC(=O)N[C@@H](Cc1c[nH]cn1)C(=O)N[C@@H](Cc1c[nH]cn1)C(=O)N[C@@H](Cc1c[nH]cn1)C(=O)N[C@@H](Cc1c[nH]cn1)C(=O)N[C@@H](Cc1c[nH]cn1)C(=O)N[C@@H](Cc1c[nH]cn1)C(=O)N[C@@H](CCCNC(=N)N)C(=O)N[C@@H](CC(=O)O)C(=O)N[C@@H](Cc1ccc(O)cc1)C(=O)N[C@@H](CCCCN)C(=O)N[C@@H](CC(=O)O)C(=O)N[C@@H](CC(=O)O)C(=O)N[C@@H](CC(=O)O)C(=O)N[C@@H](CC(=O)O)C(=O)N[C@@H](CCCCN)C(=O)O)[C@@H](C)O)[C@@H](C)CC` (stereo partly shown) [Clone 10F9, XRSTLNSLEYRXQYATEDPRIRXASIPYTYWWP], the “Fmax [%]” value worked out at 86 ± 1.2% and binding was characterised by a dissociation constant (Kd) of 3.1 ± 0.17 nM.
